Test results reported in ChEMBL document CHEMBL1201862, “PubChem BioAssay data set” (2004).
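Dose response: 5 concentrations. Exposure: 48 h. Format: 96-well plates. Endpoint: linear interpolation; highest concentration if not reached. GI50 marks 50% less growth.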 Activity calls are given as the source filed them. No stated cut-off is given here; in the data, active = GI50 up to about 1.1 µM and inactive = higher.

Experiments:
Assay in all cases: DTP human tumour cell line panel, 48 h
EKVX = system: EKVX
ACHN = system: ACHN
OVCAR-5 = system: OVCAR-5
NCI-H522 = system: NCI-H522
SR = system: SR
CAKI-1 = system: CAKI-1
COLO 205 = system: COLO 205
SK-MEL-2 = system: SK-MEL-2
HCC 2998 = system: HCC 2998
UO-31 = system: UO-31
KM-20L2 = system: KM-20L2
LOX IMVI = system: LOX IMVI
SF-539 = system: SF-539
A498 = system: A498
RPMI-8226 = system: RPMI-8226
PC-3 = system: PC-3
NCI/ADR-RES = system: NCI/ADR-RES
MCF7 = system: MCF7
MDA-MB-435 = system: MDA-MB-435
MDA-N = system: MDA-N

Measured: GI50

COc1cccc(NC(=O)C(C)(C)C)c1C=O
inactive: EKVX 35.3 µM | ACHN 56.2 µM | OVCAR-5 62.5 µM | NCI-H522 55.2 µM | SR 26.5 µM | CAKI-1 56.6 µM | COLO 205 > 100 µM | SK-MEL-2 73.6 µM | HCC 2998 92 µM | UO-31 34.3 µM | KM-20L2 43.8 µM | LOX IMVI 46.1 µM | SF-539 68.4 µM | A498 > 100 µM | RPMI-8226 19.4 µM

O=C1NC2(CCCCC2)C(=O)N1CCN(CCCl)CCCl [SPIROMUSTINE]
inactive: EKVX 204 µM | ACHN 23.1 µM | OVCAR-5 > 233 µM | NCI-H522 65.5 µM | SR 19.4 µM | CAKI-1 41.8 µM | COLO 205 > 230 µM | SK-MEL-2 > 141 µM | PC-3 > 25 µM | HCC 2998 > 230 µM | NCI/ADR-RES 136 µM | MCF7 113 µM | UO-31 218 µM | KM-20L2 > 194 µM | LOX IMVI 104 µM | SF-539 114 µM | MDA-MB-435 > 25 µM | A498 > 250 µM | RPMI-8226 134 µM | MDA-N > 25 µM

C#CCNC(=O)NCCCCC(NC(=O)OCc1ccccc1)C(=O)OCc1ccccc1 (centres undefined)
inactive: EKVX > 100 µM | ACHN 27.7 µM | OVCAR-5 > 100 µM | NCI-H522 22.3 µM | SR 45 µM | CAKI-1 > 59.4 µM | COLO 205 17.7 µM | SK-MEL-2 > 96.2 µM | HCC 2998 37.9 µM | UO-31 > 48.4 µM | KM-20L2 > 100 µM | LOX IMVI 39.1 µM | SF-539 > 60.5 µM | A498 > 100 µM | RPMI-8226 21.2 µM

CC1CCC2(OC1)OC1CC3C4CCC5CC(O)CCC5(C)C4CC(=O)OC3(C)C1C2C (centres undefined)
inactive: EKVX > 100 µM | ACHN > 100 µM | OVCAR-5 > 100 µM | NCI-H522 > 100 µM | SR > 100 µM | CAKI-1 > 100 µM | COLO 205 > 100 µM | SK-MEL-2 > 100 µM | HCC 2998 > 100 µM | UO-31 > 100 µM | KM-20L2 > 100 µM | LOX IMVI > 100 µM | SF-539 > 100 µM | A498 > 100 µM | RPMI-8226 > 100 µM

CCOC1c2cc(OC)c(OC)cc2-c2ccc3ccccc3c2N1C (centres undefined)
inactive: EKVX 6.27 µM | ACHN 30.3 µM | OVCAR-5 21.8 µM | NCI-H522 3.02 µM | SR 7.78 µM | CAKI-1 34.1 µM | COLO 205 6.05 µM | SK-MEL-2 13.9 µM | PC-3 5.15 µM | HCC 2998 14.1 µM | NCI/ADR-RES 29.7 µM | MCF7 12.4 µM | UO-31 44.6 µM | KM-20L2 15.3 µM | LOX IMVI 14.9 µM | SF-539 18.2 µM | MDA-MB-435 13.8 µM | RPMI-8226 10.7 µM | MDA-N 10.6 µM
